Measured values as given in patent US7816321B2, “Thymosin β4 derivatives and use thereof” (Beijing Northland Biotech. Co., Ltd., priority 2005, dated 2010).
Where “and” joins values, the source holds several entries; their conditions need not be identical. Equal values may be shown once.

Key:
Format in all cases: in vivo
[1] = system: rat left anterior descending branch coronary artery reperfusion models (acute myocardial infarction); test: Rat heart ischemia model: thickness of anterior left ventricular wall by ultrasonic cardiogram; conditions: for thickness of anterior left ventricular wall: 10 μg/rat/day intraperitoneal injection
Procedure: (§1) Rats were administrated with xylazine 5 mg/kg by intramuscular injection; anesthetized with ketamine 50 mg/kg, and rat anterior chest wall was disinfected with iodine tincture and alcohol; after completely dry, a sterile operation towel was put on, the operative site was exposed, and the operation was conducted under complete aseptic condition. The skin of rat anterior chest wall was incised, and the 3rd to the 6th ribs were cut to expose thoracic cavity, the lung was pushed aside, the heart vesicle was opened to expose the heart. Blood vessel from the origin of left anterior descending branch coronary artery to 3 mm was ligated with 6-0 polypropylene ligature wire and NELATION, and the reperfusion was conducted 1 hour later. After non-hemorrhage was confirmed, the excised ribs were sutured with sternum, and then skin was sutured. After operation, the rats were administrated with 3 mg/kg/day gentamicin for 3 days by intramuscular injection for prevention of infection.
3. Comparison of Degree of Heart Ventricle Fibrosis by Using Histological Pictures

[2] = system: rat left anterior descending branch coronary artery reperfusion models (acute myocardial infarction); test: Rat heart ischemia model: degree of heart ventricle fibrosis by histological pictures (Masson's trichrome); conditions: 56th day after administration; 10 μg/rat/day intraperitoneal injection
Procedure: as §1

[3] = system: rat epidermis lesion models; test: Rat epidermis lesion model: wound length by computer image analysis (smearing on epidermis)
Procedure: 30 adult rats were cut on their epidermis to obtain rat epidermis lesion model.
(§2) Rats were administrated with xylazine 5 mg/kg by intramuscular injection; anesthetized with ketamine 50 mg/kg, and rat posterior skin was disinfected with iodine tincture and alcohol; after completely dry, a sterile operation towel was put on, the operative site was exposed, and the operation was conducted under complete aseptic condition. The rat posterior skin was incised to form 3 cm incision.

[4] = system: rat epidermis lesion models; test: Rat epidermis lesion model: wound healing observation after topical administration by nebulizer
Procedure: as §2

[5] = system: rat cornea alkali burn models; test: Rat cornea alkali burn model: recovery of corneal epithelium by image analysis
Source text: The corneas of 30 adult rats were burned with 1N NaOH to obtain rat corneal lesion models.
After 4 days, eyeballs were exenterated, fixed with 10% formaldehyde, embedded with paraffin and continuously sectioned along pupil optic nerve plane, the obtained sections were used for collection and analysis of recovery of corneal epithelium by image analysis system.

[6] = system: rabbit cornea alkali burn models; test: Rabbit cornea alkali burn model: recovery of corneal epithelium; conditions: 5th day; 500 μg/ml eyedrops, 4 times per day
Source text: Eyeballs were exenterated separately after 1 and 5 days, fixed with 10% formaldehyde, embedded with paraffin, and continuously sectioned along pupil optic nerve plane, the obtained sections were stained and used for collection and analysis of recovery of corneal epithelium by image analysis system.

[7] = system: rat models with left anterior descending branch coronary artery ligation and reperfusion; test: Rat coronary artery ligation and reperfusion model: cell death and heart function (summary); conditions: continuous injection for one month
Procedure: 60 adult rats were subjected to coronary artery deligation to imitate the onset of heart disease and to obtain rat models with left anterior descending branch coronary artery ligation and reperfusion.
as §1

[8] = 100 μg/ml, topical by nebulizer, 4 times per day

**Q.** Which “thickness of anterior left ventricular wall, basal value” ([1]; 0th day, before administration, rat heart ischemia model) does the source give for “Tβ4: Native thymosin β4, polypeptide with 43 amino acids as shown in SEQ ID NO:1; positive control (SDKPDMAEIEKFDKSKLKKTETQEKNPLPSKETIEQEKQAGES; listed as Homo sapiens)” here?
**A.** 0.2378±0.018

**Q.** And the “thickness of anterior left ventricular wall” value ([1]; 14th day after administration)?
**A.** 0.1919±0.012 and 0.1215±0.013

**Q.** And the “thickness of anterior left ventricular wall” value ([1]; 28th day after administration)?
**A.** 0.1233±0.0071

**Q.** What about the “thickness of anterior left ventricular wall” value ([1]; 56th day after administration) of the same substance?
**A.** 0.1232±0.0057

**Q.** And the “ratio of fibrosis part of myocardium based on total myocardium of left ventricle” value [2]?
**A.** 23.15±2.9% and 22.91±2.3%

**Q.** And the “wound length, basal value” ([3]; 0th day, before administration, 3 cm incision of posterior skin)?
**A.** 3.07±0.18

**Q.** And the wound length ([3]; 5th day, smeared on epidermis 4 times per day, 5 μg/day)?
**A.** 1.62±0.13

**Q.** And the “length of wounds smaller than the blank control” value ([3]; smeared for 5 days, 30 adult rats)?
**A.** 50%

**Q.** What about the wound healing time [4, 8] of the same substance?
**A.** 5.8 ± 0.91 days

**Q.** What about the “wound inflammatory reaction (severity)” value [4, 8] of the same substance?
**A.** relatively slight inflammatory reactions

**Q.** What about the “wound inflammatory reaction, time persisted” value [4, 8] of the same substance?
**A.** 1 to 2 days

**Q.** What about the scar appearance ([4]; two weeks after administration, 100 μg/ml by nebulizer) of the same substance?
**A.** relatively fine linear scars with relatively smooth surface

**Q.** What about the scar size ([4]; two weeks after administration, 100 μg/ml by nebulizer, 4 times per day) of the same substance?
**A.** 1.9±0.23 cm

**Q.** And the “recovery of corneal epithelium (image analysis), basal value” ([5]; 0th day, before administration, 1N caustic soda burn)?
**A.** 4.76±0.18

**Q.** What about the “recovery of corneal epithelium (image analysis)” value ([5]; 4th day after administration, eyedrops 30 μl/rat, 4 times per day) of the same substance?
**A.** 7.03±0.13

**Q.** What about the “recovery of injured corneas” value ([5]; dropped in eyes for 4 days, corneas burned with 1N NaOH) of the same substance?
**A.** recovered completely

**Q.** What about the “layers of epithelial cells appeared” value [6] of the same substance?
**A.** 1-2 layers

**Q.** What about the “recovery condition of corneal epithelium” value [6] of the same substance?
**A.** all injured corneal epithelial cells were recovered and became normal

**Q.** What about the “cell death in the injured rat heart” value [7] of the same substance?
**A.** Limited cells died

**Q.** And the heart functions ([7]; several weeks after the onset of heart disease)?
**A.** heart functions were improved
